The structures appear in SMILES notation.

Test [1] concerns the target PDE11 (Homo sapiens, UniProt Q9HCR9). Briefly: IMAP fluorescence polarization PDE assay. Type of test: biochemical.
Test [2] deals with PDE5 (Homo sapiens, UniProt O76074). Nature of the test: IMAP fluorescence polarization PDE assay. Type of test: biochemical.

PDE11, sequence (Q9HCR9 whole entry): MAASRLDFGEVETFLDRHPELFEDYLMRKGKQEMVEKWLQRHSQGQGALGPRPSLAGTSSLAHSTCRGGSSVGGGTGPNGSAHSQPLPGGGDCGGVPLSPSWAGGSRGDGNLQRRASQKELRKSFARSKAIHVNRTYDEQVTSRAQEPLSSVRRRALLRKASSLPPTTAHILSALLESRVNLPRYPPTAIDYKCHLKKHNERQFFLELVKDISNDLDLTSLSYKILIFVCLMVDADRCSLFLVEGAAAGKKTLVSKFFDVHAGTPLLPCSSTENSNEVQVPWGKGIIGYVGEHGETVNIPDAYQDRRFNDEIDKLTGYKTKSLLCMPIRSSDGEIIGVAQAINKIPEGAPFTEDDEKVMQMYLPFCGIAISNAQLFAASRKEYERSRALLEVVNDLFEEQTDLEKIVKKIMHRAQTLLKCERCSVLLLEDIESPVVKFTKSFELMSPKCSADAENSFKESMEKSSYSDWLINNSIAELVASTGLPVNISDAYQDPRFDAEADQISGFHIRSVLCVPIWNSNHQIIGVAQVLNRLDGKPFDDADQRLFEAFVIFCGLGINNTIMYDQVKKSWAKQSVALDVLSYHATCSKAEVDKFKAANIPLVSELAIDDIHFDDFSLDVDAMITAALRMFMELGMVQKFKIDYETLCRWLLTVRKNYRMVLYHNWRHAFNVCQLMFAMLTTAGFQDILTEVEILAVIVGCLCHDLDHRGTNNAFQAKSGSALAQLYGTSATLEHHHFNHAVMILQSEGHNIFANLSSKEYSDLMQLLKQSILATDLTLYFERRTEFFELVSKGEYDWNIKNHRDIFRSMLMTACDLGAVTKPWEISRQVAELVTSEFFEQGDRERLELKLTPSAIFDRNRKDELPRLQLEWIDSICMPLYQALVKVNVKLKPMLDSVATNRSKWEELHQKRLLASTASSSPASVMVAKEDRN

As usually defined, the IC50 is the point on the concentration scale where inhibition reaches its midpoint. High values mean a need for much substance, low ones inhibition by little substance. Take `CCN1C(=O)[C@H]2Cc3c([nH]c4ccccc34)[C@H](c3cc(OC)ccc3OC)N2C1=O` [VI, (5S,11aR)-2-Ethyl-5-(2,5-dimethoxyphenyl)-5,6,11,11^a-tetrahydro-1H-imidazo[1′,5′:1,6]pyrido [3,4-b]indole-1,3(2H)-dione]: the IC50 in test [1] and in test [2] was over 100 µM throughout.

On to `COC(=O)[C@@H]1Cc2c([nH]c3ccccc23)[C@@H](c2cc(OC)ccc2OC)N1` [IV, Methyl (1R,3S)-1-(2,5-dimethoxyphenyl)-2,3,4,9-tetrahydro-1H-β-carboline-3-carboxylate], for which the 50% inhibitory concentration (IC50) in test [1] is over 100 µM; in test [2] it was 17.4 ± 1.09 µM.

With `CCN1C(=O)[C@@H]2Cc3c([nH]c4ccccc34)[C@@H](c3cc(OC)ccc3OC)N2C1=O` [VIII, (5R,11aS)-2-Ethyl-5-(2,5-dimethoxyphenyl)-5,6,11,11a-tetrahydro-1H-imidazo[1′,5′:1,6]pyrido [3,4-b]indole-1,3(2H)-dione], the IC50 is over 100 µM in test [1] and 87.4 ± 1.1 µM in test [2].

On to `COC(=O)[C@H]1Cc2c([nH]c3ccccc23)[C@H](c2cc(OC)ccc2OC)N1` [II, Methyl (1S,3R)-1-(2,5-dimethoxyphenyl)-2,3,4,9-tetrahydro-1H-β-carboline-3-carboxylate], for which the 50% inhibitory concentration (IC50) in test [1] and in test [2] was over 100 µM in each case.

On to `CCN1C(=O)[C@@H]2Cc3c([nH]c4ccccc34)[C@H](c3cc(OC)ccc3OC)N2C1=O` [VII, (5S,11aS)-2-Ethyl-5-(2,5-dimethoxyphenyl)-5,6,11,11a-tetrahydro-1H-imidazo[1′,5′:1,6]pyrido [3,4-b]indole-1,3(2H)-dione], for which the half-maximal inhibitory concentration (IC50) in test [1] and in test [2] was over 100 µM each time.

In the case of `CCN1C(=O)[C@H]2Cc3c([nH]c4ccccc34)[C@H](c3cc(OC)ccc3OC)N2C1=S` [X, (5S,11aR)-2-ethyl-1-oxo-5-(2,5-dimethoxy-phenyl)-5,6,11,11a-tetrahydro-1H-imidazo [1′,5′:1,6]pyrido[3,4-b]indole-3 (2H)-thione], the IC50 in test [1] and in test [2] was over 100 µM in each case.

As to `COC(=O)[C@H]1Cc2c([nH]c3ccccc23)[C@@H](c2cc(OC)ccc2OC)N1` [I, Methyl (1R,3R)-1-(2,5-dimethoxyphenyl)-2,3,4,9-tetrahydro-1H-β-carboline-3-carboxylate], the 50% inhibitory concentration (IC50) in test [1] was over 100 µM; in test [2] it was 3.9 ± 1.09 µM.

As to `COC(=O)[C@@H]1Cc2c([nH]c3ccccc23)[C@H](c2cc(OC)ccc2OC)N1` [III, Methyl (1S,3S)-1-(2,5-dimethoxyphenyl)-2,3,4,9-tetrahydro-1H-β-carboline-3-carboxylate], the results for the IC50 in test [1] and in test [2] were over 100 µM and 14.3 ± 1.09 µM, respectively.

In the case of `CC1=C(CC(=O)O)c2cc(F)ccc2/C1=C\c1ccc(S(C)(=O)=O)cc1` [Exisulind, reference compound], the IC50 in test [1] was over 300 µM; in test [2], 295 ± 1.11 µM.

As to `CCN1C(=O)[C@@H]2Cc3c([nH]c4ccccc34)[C@@H](c3cc(OC)ccc3OC)N2C1=S` [IX, (5R,11aS)-2-ethyl-1-oxo-5-(2,5-dimethoxyphe-nyl)-5,6,11,11a-tetrahydro-1H-imidazo[1′,5′:1,6] pyrido[3,4-b]indole-3 (2H)-thione], the half-inhibitory concentration (IC50) is over 100 µM in test [1] and 78.6 ± 1.14 µM in test [2].

Consider `CCN1C(=O)[C@H]2Cc3c([nH]c4ccccc34)[C@@H](c3cc(OC)ccc3OC)N2C1=O` [V, (5R,11aR)-2-Ethyl-5-(2,5-dimethoxyphenyl)-5,6,11,11a-tetrahydro-1H-imidazo[1′,5′:1,6]pyrido [3,4-b]indole-1,3(2H)-dione], for which the IC50 in test [1] was over 100 µM; in test [2], 5 ± 1.14 µM.

The values are drawn from PMC4980831 (Arzneimittel-Forschung, 2009).
